Results reported in patent US10774115B2, “Modified Fab region-binding peptide” (Kaneka Corporation, priority 2015, dated 2020).

Columns and labels:
[1] = test system: aTNF-Fab; assay: Acid dissociation pH by pH linear gradient chromatography on aTNF-Fab-immobilized column; assay type: binding; settings: for Dissociation pH (pH at elution peak top): pH linear gradient from pH 5.5 to pH 2.5; for elution position in pH gradient compared with peptide without mutation: Table 3 and FIG. 2
Experimental: An affinity separation matrix on which aTNF-Fab obtained in the above Example 2 was immobilized was prepared by using a commercially available coupling column for immobilizing a ligand. The column has an amino group as a functional group for coupling.
As a water-insoluble carrier, 1 mL of a commercially available prepacked column (“Hitrap NHS activated HP” manufactured by GE Healthcare Bioscience) was used. The column contains a crosslinked agarose as a base material and an amino group is introduced as an active functional group for immobilizing a protein ligand, and a ligand was immobilized in accordance with the product manual. Specifically, 2 mL of ice-cooled 1 mM HCl was flown at a rate of 1 mL/min repeatedly three times to remove isopropanol in the column.
Then, 1 mL of a 1 mg/mL aTNF-Fab solution in a coupling buffer (0.2 MNaHCO3, 0.5 MNaCl, pH 8.3) was immediately flown at the same rate. The top and bottom of the column were stoppled, and the column was stood still at 25° C. for 30 minutes to immobilize the obtained ligand on the column.
Then, the column was opened, and 3 mL of the coupling buffer was flown at the same rate to recover the unreacted aTNF-Fab. Next, 2 mL of a blocking buffer (0.5 M ethanolamine, 0.5 M NaCl, pH 8.3) was flown repeatedly three times and 2 mL of a washing buffer (0.1 M acetic acid, 0.5 M NaCl, pH 4.0) was flown three times. Each of the above-described procedure to flow the blocking buffer and washing buffer were performed three times one after the other. Finally, 2 mL of a standard buffer (20 mM NaH2PO4—Na2HPO4, 150 mM NaCl, pH 7.4) was flown to complete the preparation of an affinity separation matrix.
By affinity purification chromatography using aTNF-Fab-immobilized column prepared in Example 3(1), an acid dissociation pH at which each modified SpG-β1# prepared in Example 1 (2) was eluted and which corresponded to the peak top of an elution curve of the modified SpG-β1# was measured. Specifically, AKTAprime plus system was used as a chromatography system. The column was equilibrated using ion exchange buffer A (50 mM citric acid-citrate Na, pH 5.5). Into the column, 0.1 mL of a protein solution containing each modified SpG-β1# in the concentration of about 0.1 mg/mL was added, and the protein was eluted with the pH linear gradient from pH 5.5 to pH 2.5. More specifically, the ion exchange buffer A and ion exchange buffer B (50 mM AcOH—AcONa, 1 M NaCl, pH 2.5) were used. […] The pH value which was specified in the experiment as the value corresponding to each elution peak top is shown in Table 3 in addition to the result of Comparative example 3.
An acid dissociation pH of GB1#-Cont.1d prepared in Comparative example 1 was measured using aTNF-Fab-immobilized carrier prepared in Example 3(1) similarly to the procedure of Example 3(2).

[2] = test system: aTNF-Fab; assay: Affinity of modified SpG-β1# for aTNF-Fab by surface plasmon resonance (Biacore 3000); settings: aTNF-Fab immobilized on CM5 sensor tip, 25° C., pH 7.4, 1:1 binding model
Experimental: A humanized monoclonal IgG product as a raw material was fragmented into a Fab fragment and a Fc fragment using papain, and only the Fab fragment was separated and purified. Specifically, anti-human TNFα monoclonal IgG (generic name: “Infliximab”, product name: “Remicade” manufactured by Mitsubishi Tanabe Pharma Corporation) was dissolved in a buffer for papain treatment (0.1 M AcOH—AcONa, 2 mM EDTA, 1 mM cysteine, pH 5.5), and agarose on which papain was immobilized (“Papain Agarose from papaya latex” manufactured by SIGMA) was added thereto. The mixture was incubated with stirring by a rotator at 37° C. for about 8 hours. The IgG-Fab was purified by recovering as a flow-through fraction in an affinity chromatography using MabSelect SuRe column (GE Healthcare Bioscience) from the reaction mixture which contained both of a Fab fragment and a Fc fragment and which was separated from the agarose on which papain was immobilized. The obtained IgG-Fab solution was subjected to purification by gel filtration chromatography using Superdex 75 10/300 GL column to obtain the solution of IgG-Fab (aTNF-Fab). In the chromatography, the standard buffer was used for equilibration and separation. Similarly to the above-described Example 1, AKTAprime plus system was used in the chromatography for peptide purification.
The affinity of each various modified SpG-β1# obtained in the above Example 1(2) for aTNF-Fab was evaluated using a biosensor Biacore 3000 (GE Healthcare Bioscience) utilizing surface plasmon resonance. In the present Example, the aTNF-Fab obtained in the above Example 2(1) was immobilized on a sensor tip, and each of the peptide was flown on the tip to detect the interaction between the two. The aTNF-Fab was immobilized on a sensor tip CM5 by amine coupling method using N-hydroxysuccinimide (NHS) and N-ethyl-N′-(3-dimethylaminopropyl)carbodiimide hydrochloride (EDC), and ethanolamine was used for blocking. All of the sensor tip and reagents for immobilization were manufactured by GE Healthcare Bioscience. The aTNF-Fab solution was diluted about 10 times using a buffer for immobilization (10 mM AcOH—AcONa, pH 4.5), and the aTNF-Fab was immobilized on the sensor tip in accordance with the protocol attached to the Biacore 3000. In addition, a reference cell as negative control was also prepared by activating another flow cell on the tip with EDC/NHS, immobilizing nothing and blocking with ethanolamine. Peptide solutions of each various modified SpG-β1# having concentrations of 0.01, 0.1, 1 or 10 μM were prepared using a running buffer (20 mM NaH2PO4—Na2HPO4, 150 mM NaCl, 0.005% P-20, pH 7.4). The peptide solution was added to the sensor tip in a flow rate of 40 μL/min for 1 minute. Bonding response curves at the time of addition (association phase, for 1 minute) and after the addition (dissociation phase, for 1 minute) were sequentially obtained at a measurement temperature of 25° C. After each measurement, the cells were washed using about 20 mM NaOH. The bonding response curve obtained by subtracting the bonding response curve of the reference cell was subjected to fitting analysis by a binding model of 1:1 using a software BIA evaluation attached to the system, and affinity constant (KA=kon/koff) to aTNF-Fab was calculated. The result is shown in Table 2 with each binding parameter of GB1#-Cont.1d, which parameter was measured in Comparative Example 2.
An affinity of GB1#-Cont.1d prepared in Comparative example 1 for aTNF-Fab prepared in Example 2(1) was evaluated similarly to the procedure of Example 2(2).

| Substance | Dissociation pH (pH at elution peak top) [1] | KA (affinity constant, KA=kon/koff) [2] | koff [2] | kon [2] | elution position in pH gradient compared with peptide without mutation [1] |
| --- | --- | --- | --- | --- | --- |
| GB1#-Cont.1d: modified SpG-β1 of SEQ ID NO: 1 with improved binding capability to Fab; peptide before substitution mutation, Comparative example (TTYKLILNGKTLTGYTTAIAADAATAEIVLKQFANDNGIDGEWTYDDATKTFTVTE; Immunoglobulin-binding peptide) [reference compound] | 2.60 | 2.45 ×10^6 [M^−1] | 1.70 ×10^−2 [s^−1] | 4.17 ×10^4 [M^−1s] | – |
| GB1#-D36V.1d: modified SpG-β1# single domain with mutation D36V; amino acid SEQ ID NO: 19 (TTYKLILNGKTLTGYTTAIAADAATAEIVLKQFANVNGIDGEWTYDDATKTFTVTE; GB1#-mutant) | 3.40 | 0.51 ×10^6 [M^−1] | 6.40 ×10^−2 [s^−1] | 3.28 ×10^4 [M^−1s] | eluted earlier than GB1#-Cont.1d |
| GB1#-T17A.1d: modified SpG-β1# single domain, SEQ ID NO: 1 with Thr at 17th position substituted by Ala; amino acid SEQ ID NO: 17 (TTYKLILNGKTLTGYTAAIAADAATAEIVLKQFANDNGIDGEWTYDDATKTFTVTE; GB1#-mutant) | 2.85 | 0.88 ×10^6 [M^−1] | 2.85 ×10^−2 [s^−1] | 2.50 ×10^4 [M^−1s] | eluted earlier than GB1#-Cont.1d |
| GB1#-T17V.1d: modified SpG-β1# single domain with mutation T17V; amino acid SEQ ID NO: 18 (TTYKLILNGKTLTGYTVAIAADAATAEIVLKQFANDNGIDGEWTYDDATKTFTVTE; GB1#-mutant) | 3.00 | 0.57 ×10^6 [M^−1] | 3.35 ×10^−2 [s^−1] | 1.91 ×10^4 [M^−1s] | eluted earlier than GB1#-Cont.1d |
